From patent publication US10730889B2, “Amido spirocyclic amide and sulfonamide derivatives” (Forma TM, LLC, priority 2012, dated 2020)
pIC50: −log10 of the molar value. Read-outs that look alike come from different tables or passages of the source.

Test system: A2780 cells
Assay: In-vitro cell proliferation assay (SRB, 72 hours)
Format: cell-based
Conditions: A2780 cells, 72 hours, SRB, read-out: Cell Proliferation (IC50)

Cc1nn(C)c(C)c1C(=O)N1CCC2(CC1)CC2CNC(=O)c1cc2ccncc2o1 (single isomer, unassigned) [Example 300, N-[[6-(1,3,5-trimethylpyrazole-4-carbonyl)-6-azaspiro[2.5]octan-2-yl]methyl]furo[2,3-c]pyridine-2-carboxamide]
pIC50: 6.47

Cc1nn(C)c(C)c1C(=O)N1CCC2(CC1)CC2CNC(=O)c1cc2ccncc2o1 (single isomer, unassigned) [Example 301, N-[[6-(1,3,5-trimethylpyrazole-4-carbonyl)-6-azaspiro[2.5]octan-2-yl]methyl]furo[2,3-c]pyridine-2-carboxamide]
pIC50: 8.38

Cc1nc(C)c(C(=O)N2CCC3(CC2)CC3CNC(=O)c2cc3ccncc3o2)o1 (single isomer, unassigned) [Example 384, N-[[6-(2,4-dimethyloxazole-5-carbonyl)-6-azaspiro[2.5]octan-2-yl]methyl]furo[2,3-c]pyridine-2-carboxamide (single isomer)]
pIC50 (Homo sapiens, A2780, 72 h): 6.36

O=C(NCC1CC12CCN(C(=O)C1CCOCC1)CC2)c1cc2cnccc2[nH]1 (centres unmarked) [Example 10, N-[[8-(tetrahydropyran-4-carbonyl)-8-azaspiro[2.5]octan-2-yl]methyl]-1H-pyrrolo[3,2-c]pyridine-2-carboxamidc]
pIC50 (Homo sapiens, A2780, 72 h): 6.10

CC(C)(C)OC(=O)N1CCC2(CC1)CC(CNC(=O)c1ccc3nccn3c1)C2 [Example 21, tert-butyl 2-((imidazo[1,2-a]pyridine-6-carboxamido)methyl]-7-azaspiro[3.5]nonane-7-carboxylate]
pIC50 (Homo sapiens, A2780, 72 h): 5.70

O=C(NCC1CC12CCN(C(=O)Cn1ccnc1)CC2)c1cc2ccncc2o1 (centres unmarked) [Example 26, N-[[6-(2-imidazol-1-ylacetyl)-6-azaspiro[2.5]octan-2-yl]methyl]furo[2,3-c]pyridine-2-carboxamide]
pIC50 (Homo sapiens, A2780, 72 h): 5.70

O=C(NCC1CC12CCN(C(=O)CCC(F)(F)F)CC2)c1cc2ccncc2o1 (centres unmarked) [Example 27, N-[[6-(4,4,4-trifluorobutanoyl)-6-azaspiro[2.5]octan-2-yl]methyl]furo[2,3-c]pyridine-2-carboxamide]
pIC50 (Homo sapiens, A2780, 72 h): 6.07

CS(=O)(=O)c1cccc(CC(=O)N2CCC3(CC2)CC3CNC(=O)c2cc3ccncc3o2)c1 (centres unmarked) [Example 28, N-[[6-[2-(3-methylsulfonylphenyl)acetyl]-6-azaspiro[2.5]octan-2-yl]methyl]furo[2,3-c]pyridine-2-carboxamide]
pIC50 (Homo sapiens, A2780, 72 h): 6.21

CC(C)(C)CC(=O)N1CCC2(CC1)CC2CNC(=O)c1cc2ccncc2o1 (centres unmarked) [Example 29, N-[[6-(3,3-dimethylbutanoyl)-6-azaspiro[2.5]octan-2-yl]methyl]furo[2,3-c]pyridine-2-carboxamide]
pIC50 (Homo sapiens, A2780, 72 h): 8.52

CN1CCN(CC(=O)N2CCC3(CC2)CC3CNC(=O)c2cc3ccncc3o2)CC1 (centres unmarked) [Example 30, N-[[6-[2-(4-methylpiperazin-1-yl)acetyl]-6-azaspiro[2.5]octan-2-yl]methyl]furo[2,3-c]pyridine-2-carboxamide]
pIC50 (Homo sapiens, A2780, 72 h): 6.21

N#Cc1cccc(CC(=O)N2CCC3(CC2)CC3CNC(=O)c2cc3ccncc3o2)c1 (centres unmarked) [Example 31, N-[[6-[2-(3-cyanophenyl)acetyl]-6-azaspiro[2.5]octan-2-yl]methyl]furo[2,3-c]pyridine-2-carboxamide]
pIC50 (Homo sapiens, A2780, 72 h): 7.92

O=C(NCC1CC12CCN(C(=O)CC1CC1)CC2)c1cc2ccncc2o1 (centres unmarked) [Example 32, N-[[6-(2-cyclopropylacetyl)-6-azaspiro[2.5]octan-2-yl]methyl]furo[2,3-c]pyridine-2-carboxamide]
pIC50 (Homo sapiens, A2780, 72 h): 5.70

O=C(NCC1CC12CCN(C(=O)CN1CCCC1)CC2)c1cc2ccncc2o1 (centres unmarked) [Example 33, N-[[6-(2-pyrrolidin-1-ylacetyl)-6-azaspiro[2.5]octan-2-yl]methyl]furo[2,3-c]pyridine-2-carboxamide]
pIC50 (Homo sapiens, A2780, 72 h): 5.70

Cc1cc(CC(=O)N2CCC3(CC2)CC3CNC(=O)c2cc3ccncc3o2)on1 (centres unmarked) [Example 34, N-[[6-[2-(3-methylisoxazol-5-yl)acetyl]-6-azaspiro[2.5]octan-2-yl]methyl]furo[2,3-c]pyridine-2-carboxamide]
pIC50 (Homo sapiens, A2780, 72 h): 6.42
